Results on 3 molecules are retold here after patent US20130150243A1, “METHOD OF CONTROLLING PEST” (SUMITOMO CHEMICAL COMPANY, LIMITED, priority 2011, published 2013).

Common to all, as to format: in vivo
The test system of series [1] is Aphis gossypii. The experiment in a line: Insecticidal activity (controlling value) on cotton grown from treated seeds. The settings on record: soil treated with flumioxazin 50 or 75 g/ha, six days after release of Aphis gossypii. The method, then:
For evaluating the insecticidal activity, life or death of an insect at investigation is determined, and a controlling value is obtained by the following equation:
Controlling value(%)=100×(1−T/C)
C: Number of insects at observation of non-treated section T: Number of insects at observation of treated-section
(§1) Into a plastic cup having an internal diameter of 96 millimeters and a height of 44 millimeters are placed 25 microliters of a clothianidin suspension (suspension containing 600 g/L clothianidin, trade name: NipsIt INSIDE, manufactured by Valent USA) and 50 grains of cotton seeds. By shaking this plastic cup with a hand, the clothianidin suspension is attached to the cotton seeds.
Fifteen days after seeding with the cotton seeds, a cotton leaf piece on which 20 larvae and 20 adults of Aphis gossypii inhabited is placed in the pot, and the whole plant is covered with a nylon cloth.
(§2) Six days after release of Aphis gossypii, the insecticidal activity, herbicidal activity and phytotoxicity are determined, and high weed controlling activity (>80) and high Aphis gossypii control value (>70) are obtained, and the phytotoxicity on the cotton is “no damage”. […]

Series [2] relates to cotton. Nature of the series: Phytotoxicity on crop. More on the design: key: when phytotoxicity is hardly perceived, it is represented by “no damage”; when slight phytotoxicity is perceived, it is represented by “slight”; when moderate phytotoxicity is perceived, it is represented by “moderate”; when severe phytotoxicity is perceived, it is represented by “severe”. The settings on record: soil treated with flumioxazin 50 or 75 g/ha 15 days before seeding.
Source text: For evaluation of phytotoxicity on a crop, when phytotoxicity is hardly perceived, it is represented by “no damage”, when slight phytotoxicity is perceived, it is represented by “slight”, when moderate phytotoxicity is perceived, it is represented by “moderate”, and when severe phytotoxicity is perceived, it is represented by “severe”. The “phytotoxicity” evaluated herein is a damage characteristic determined to be caused by the treated compound, and is clearly discriminated from a damage characteristic caused by a pest.
as §1
Into a pot made of a plastic having an internal diameter of 177 millimeters and a height of 140 millimeters is packed a soil in which each of about 500 milligrams of seeds of Conyza canadensis, Amaranthus palmeri and Chenopodium album are mixed. A liquid of a flumioxazin water dispersible granule (water dispersible granule containing 51% of flumioxazin, trade name: Valor SX, manufactured by Valent USA) diluted with water is uniformly sprayed on the soil surface of this pot with a sprayer, so that flumioxazin is applied in an amount of 50 or 75 g/ha. Fifteen days after spraying, the cotton seeds are seeded at 5 grains per pot.
Six days after release of Aphis gossypii, the insecticidal activity, herbicidal activity and phytotoxicity are determined, and high weed controlling activity (>80) and high Aphis gossypii control value (>70) are obtained, and the phytotoxicity on the cotton is “no damage”.
Into a plastic cup having an internal diameter of 96 millimeters and a height of 44 millimeters are placed 25 microliters of a thiamethoxam preparation (preparation containing 600 g/L thiamethoxam, trade name: Cruiser 5FS, manufactured by Syngenta) and 50 grains of cotton seeds. By shaking this plastic cup with a hand, the thiamethoxam preparation is attached to the cotton seeds.

Series [3] concerns Conyza canadensis, Amaranthus palmeri and Chenopodium album. Nature of the series: Herbicidal activity in pot test, soil surface treated before seeding with treated cotton seeds. To be noted: assessed 21 days after seeding.
Source text: Evaluation of herbicidal activity is classified into 0 to 100, letting no or little difference when the state of germination or growth of a test weed at investigation is compared with that of non-treatment to be “0”, and letting complete withering of a test weed or complete inhibition of germination or growth to be “100”.
as §1
Into a pot made of a plastic having an internal diameter of 177 millimeters and a height of 140 millimeters is packed a soil in which each of about 500 milligrams of seeds of Conyza canadensis, Amaranthus palmeri and Chenopodium album are mixed. […]
as §2

[4] abbreviates: Example 1: clothianidin-treated cotton seeds.
[5] abbreviates: Example 2: thiamethoxam-treated cotton seeds.

As for `CN/C(=N\[N+](=O)[O-])NCc1cnc(Cl)s1` [clothianidin], the “Aphis gossypii control value” in series [1] (Example 1: clothianidin suspension (NipsIt INSIDE, 600 g/L) 25 microliters per 50 cotton seeds) is on record as greater than 70%. Further, in series [2] (setting [4]), the “phytotoxicity on the cotton” value is “no damage”.
For `C#CCN1C(=O)COc2cc(F)c(N3C(=O)C4=C(CCCC4)C3=O)cc21` [flumioxazin], the “weed controlling activity (herbicidal activity, scale 0 to 100)” value in series [3] (Example 1: flumioxazin (Valor SX) 50 or 75 g/ha on soil surface 15 days before seeding, cotton seeds treated with clothianidin) is listed as greater than 80; in series [3] (Example 2: flumioxazin (Valor SX) 50 or 75 g/ha on soil surface 15 days before seeding, cotton seeds treated with thiamethoxam), greater than 80. Moreover, the “phytotoxicity on the cotton” value in series [2] (setting [4]) and in series [2] (setting [5]) was “no damage” each time.
As for `CN1COCN(Cc2cnc(Cl)s2)/C1=N\[N+](=O)[O-]` [thiamethoxam], the “Aphis gossypii control value” in series [1] (Example 2: thiamethoxam preparation (Cruiser 5FS, 600 g/L) 25 microliters per 50 cotton seeds) is listed as greater than 70%. Moreover, in series [2] (setting [5]), the “phytotoxicity on the cotton” value is reported as “no damage”.
